Positions of bridges follow the written chain, without caps; N, C: chain ends. Non-standard residues stand in square brackets, D forms with d. Residues, ends and D or L forms follow the SMILES beside them. *: point of attachment. NMeF = CN[C@@H](Cc1ccccc1)C(=O)O; NMeI = CC[C@H](C)[C@H](NC)C(=O)O; NMeL = CN[C@@H](CC(C)C)C(=O)O; NMeV = CN[C@H](C(=O)O)C(C)C; NMeA = CN[C@@H](C)C(=O)O; Piperidide = C1CCN(*)CC1; Sar = CNCC(=O)O
test: Metabolic stability in human hepatic microsome; type: in vitro ADME; conditions: human, microsomes, CL NADPH(+)

Work on `CC[C@H](C)[C@@H]1NC(=O)[C@H](Cc2ccccc2)NC(=O)[C@@H]2CCCN2C(=O)[C@H](CC(C)C)N(C)C(=O)[C@H](Cc2ccccc2)NC(=O)[C@H](CC(C)C)NC(=O)[C@H]([C@@H](C)O)NC(=O)[C@H](C)N(C)C(=O)[C@H](C(C)C)NC(=O)[C@H](C)NC(=O)C[C@@H](C(=O)N2CCCCC2)NC(=O)[C@H](CC(C)C)NC(=O)CN(C)C1=O` [DP-21] (AV[NMeA]TLF[NMeL]PFI[Sar]LD-Piperidide; lactam N-13) yielded a microsomal CLint of 25 µL/min/mg.

same assay, conditions: human, microsomes, pH 7.4, CL NADPH(+)

`CC[C@H](C)[C@H]1C(=O)N[C@@H](Cc2ccccc2)C(=O)N(C)[C@@H](Cc2ccccc2)C(=O)N[C@@H]([C@@H](C)O)C(=O)N2CCC[C@H]2C(=O)N[C@@H](CC(C)C)C(=O)N[C@H](C(=O)N2CCCCC2)CC(=O)N[C@@H](C)C(=O)N[C@@H](C(C)C)C(=O)N(C)CC(=O)N[C@@H](CC(C)C)C(=O)N(C)[C@@H](CC(C)C)C(=O)N[C@@H](C)C(=O)N1C` [DP-1] (AV[Sar]L[NMeL]A[NMeI]F[NMeF]TPLD-Piperidide; lactam N-13) and `CC[C@H](C)[C@@H]1NC(=O)[C@H](Cc2ccccc2)N(C)C(=O)[C@H](Cc2ccccc2)NC(=O)[C@H](CC(C)C)NC(=O)[C@H](CC(C)C)N(C)C(=O)[C@H](C)N(C)C(=O)[C@H](C(C)C)NC(=O)[C@H](C)NC(=O)C[C@@H](C(=O)N2CCCCC2)NC(=O)[C@H](CC(C)C)N(C)C(=O)[C@H]([C@@H](C)O)NC(=O)[C@@H]2CCCN2C1=O` [DP-25] (AV[NMeA][NMeL]LF[NMeF]IPT[NMeL]D-Piperidide; lactam N-12) are within 1.5-fold of each other in microsomal CLint at 1 uM: 27 µL/min/mg for the first, 24 µL/min/mg for the second.

Compared with `CC[C@H](C)[C@H]1C(=O)N[C@@H](C)C(=O)N(C)[C@@H](Cc2ccccc2)C(=O)N(C)[C@@H](Cc2ccccc2)C(=O)N[C@@H]([C@@H](C)O)C(=O)N(C)[C@@H](CC(C)C)C(=O)N2CCC[C@H]2C(=O)N[C@H](C(=O)N2CCCCC2)CC(=O)N[C@@H](C)C(=O)N[C@@H](C(C)C)C(=O)N(C)[C@@H](CC(C)C)C(=O)N(C)CC(=O)N(C)[C@@H](CC(C)C)C(=O)N1C` [DP-2] (AV[NMeL][Sar][NMeL][NMeI]A[NMeF][NMeF]T[NMeL]PD-Piperidide; lactam N-13), `CC[C@H](C)[C@@H]1NC(=O)[C@H](Cc2ccccc2)N(C)C(=O)[C@H](Cc2ccccc2)N(C)C(=O)[C@H](CC(C)C)N(C)C(=O)[C@H](CC(C)C)NC(=O)[C@H](CC(C)C)N(C)C(=O)[C@H](C)N(C)C(=O)[C@H]([C@@H](C)O)NC(=O)[C@H](C)NC(=O)C[C@@H](C(=O)N2CCCCC2)NC(=O)[C@H](C(C)C)N(C)C(=O)[C@@H]2CCCN2C1=O` [DP-12] (AT[NMeA][NMeL]L[NMeL][NMeF][NMeF]IP[NMeV]D-Piperidide; lactam N-12) is 4.6-fold higher in microsomal CLint at 1 uM: 7 µL/min/mg for the first, 32 µL/min/mg for the second.

Going from `CC[C@H](C)[C@H]1C(=O)N[C@@H](C)C(=O)N[C@H](C(=O)N2CCCCC2)CC(=O)N[C@@H](C)C(=O)N[C@@H]([C@@H](C)O)C(=O)N(C)[C@@H](CC(C)C)C(=O)N[C@@H](CC(C)C)C(=O)N[C@@H](Cc2ccccc2)C(=O)N2CCC[C@H]2C(=O)N[C@@H](Cc2ccccc2)C(=O)N[C@@H](C(C)C)C(=O)N(C)CC(=O)N1C` [DP-6] (AT[NMeL]LFPFV[Sar][NMeI]AD-Piperidide; lactam N-12) to `CC(C)C[C@@H]1NC(=O)[C@H](CC(C)C)N(C)C(=O)[C@H](C)N(C)C(=O)[C@H](C(C)C)NC(=O)[C@H](Cc2ccccc2)NC(=O)CNC(=O)[C@H]([C@@H](C)O)NC(=O)[C@H](CC(C)C)NC(=O)[C@@H]2CCCN2C(=O)[C@H](Cc2ccccc2)NC(=O)[C@H](C)NC(=O)C[C@@H](C(=O)N2CCCCC2)NC1=O` [DP-23] (AFPLTGFV[NMeA][NMeL]LD-Piperidide; lactam N-12), the microsomal CLint at 1 uM rises from 35 µL/min/mg to 105 µL/min/mg (3-fold).

First: CC[C@H](C)[C@H]1C(=O)N(C)[C@@H](CC(C)C)C(=O)NCC(=O)N(C)[C@@H](C)C(=O)N[C@@H](Cc2ccccc2)C(=O)N[C@@H]([C@@H](C)O)C(=O)N(C)[C@@H](CC(C)C)C(=O)N[C@@H](Cc2ccccc2)C(=O)N(C)[C@@H](C(C)C)C(=O)N[C@H](C(=O)N2CCCCC2)CC(=O)N[C@@H](C)C(=O)N[C@@H](CC(C)C)C(=O)N1C [DP-8] (AL[NMeI][NMeL]G[NMeA]FT[NMeL]F[NMeV]D-Piperidide; lactam N-12)
Second: CC[C@H](C)[C@H]1C(=O)N[C@@H](Cc2ccccc2)C(=O)N(C)[C@@H](Cc2ccccc2)C(=O)N[C@@H]([C@@H](C)O)C(=O)N2CCC[C@H]2C(=O)N[C@@H](CC(C)C)C(=O)N[C@H](C(=O)N2CCCCC2)CC(=O)N[C@@H](C)C(=O)NCC(=O)N(C)[C@@H](C(C)C)C(=O)N(C)[C@@H](CC(C)C)C(=O)N[C@@H](C)C(=O)N1C [DP-26] (AG[NMeV][NMeL]A[NMeI]F[NMeF]TPLD-Piperidide; lactam N-12)
The microsomal CLint at 1 uM of the first is 1.7-fold lower: 36 µL/min/mg for the first, 62 µL/min/mg for the second.

Going from `CC[C@H](C)[C@@H]1NC(=O)[C@H](C)NC(=O)C[C@@H](C(=O)N2CCCCC2)NC(=O)[C@H](CC(C)C)N(C)C(=O)[C@H](CC(C)C)N(C)C(=O)[C@H](C(C)C)NC(=O)[C@H](C)NC(=O)[C@H](Cc2ccccc2)N(C)C(=O)[C@H](Cc2ccccc2)N(C)C(=O)[C@H]([C@@H](C)O)NC(=O)[C@H](CC(C)C)N(C)C(=O)[C@@H]2CCCN2C1=O` [DP-10] (AIP[NMeL]T[NMeF][NMeF]AV[NMeL][NMeL]D-Piperidide; lactam N-12) to `CC[C@H](C)[C@H]1C(=O)N(C)[C@@H](C)C(=O)N[C@H](C(=O)N2CCCCC2)CC(=O)N[C@@H](C)C(=O)N[C@@H]([C@@H](C)O)C(=O)N(C)[C@@H](Cc2ccccc2)C(=O)N(C)[C@@H](CC(C)C)C(=O)N[C@@H](C(C)C)C(=O)N2CCC[C@H]2C(=O)N(C)[C@@H](Cc2ccccc2)C(=O)N[C@@H](CC(C)C)C(=O)N(C)CC(=O)N1C` [DP-11] (AT[NMeF][NMeL]VP[NMeF]L[Sar][NMeI][NMeA]D-Piperidide; lactam N-12), the microsomal CLint at 1 uM rises from 14 µL/min/mg to 67 µL/min/mg (4.8-fold).

`CC[C@H](C)[C@@H]1NC(=O)[C@H](C)NC(=O)C[C@@H](C(=O)N2CCCCC2)NC(=O)[C@H](Cc2ccccc2)NC(=O)[C@H](C(C)C)NC(=O)[C@H](CC(C)C)NC(=O)[C@H](C)NC(=O)[C@H](Cc2ccccc2)N(C)C(=O)[C@H]([C@@H](C)O)NC(=O)[C@H](CC(C)C)NC(=O)[C@H](CC(C)C)N(C)C1=O` [DP-13] (AI[NMeL]LT[NMeF]ALVFD-Piperidide; lactam N-11) and `CC[C@H](C)[C@@H]1NC(=O)[C@H](C)NC(=O)[C@H](CC(C)C)N(C)C(=O)[C@H](CC(C)C)NC(=O)[C@H](Cc2ccccc2)NC(=O)[C@H](C(C)C)NC(=O)[C@@H]2CCCN2C(=O)[C@H](CC(C)C)NC(=O)[C@H](Cc2ccccc2)N(C)C(=O)[C@H]([C@@H](C)O)NC(=O)CNC(=O)[C@H](C)NC(=O)C[C@@H](C(=O)N2CCCCC2)NC1=O` [DP-20] (AGT[NMeF]LPVFL[NMeL]AID-Piperidide; lactam N-13) are within 1.5-fold of each other in microsomal CLint at 1 uM: 66 µL/min/mg for the first, 97 µL/min/mg for the second.

`CC[C@H](C)[C@@H]1NC(=O)[C@H](Cc2ccccc2)N(C)C(=O)[C@H](Cc2ccccc2)NC(=O)[C@H](C(C)C)N(C)C(=O)[C@H](CC(C)C)N(C)C(=O)[C@H](CC(C)C)NC(=O)[C@H](C)NC(=O)C[C@@H](C(=O)N2CCCCC2)NC(=O)[C@H]([C@@H](C)O)NC(=O)CNC(=O)[C@@H]2CCCN2C1=O` [DP-14] (AL[NMeL][NMeV]F[NMeF]IPGTD-Piperidide; lactam N-11) and `CC[C@H](C)[C@@H]1NC(=O)[C@H](CC(C)C)N(C)C(=O)CNC(=O)[C@H](C)NC(=O)C[C@@H](C(=O)N2CCCCC2)NC(=O)[C@@H]2CCCN2C(=O)[C@H](CC(C)C)NC(=O)[C@H](Cc2ccccc2)NC(=O)[C@H]([C@@H](C)O)NC(=O)[C@H](Cc2ccccc2)N(C)C(=O)[C@H](C)N(C)C1=O` [DP-30] (AG[NMeL]I[NMeA][NMeF]TFLPD-Piperidide; lactam N-11) are within 1.5-fold of each other in microsomal CLint at 1 uM: 57 µL/min/mg for the first, 63 µL/min/mg for the second.

Compared with `CC[C@H](C)[C@H]1C(=O)N2CCC[C@H]2C(=O)N(C)CC(=O)N[C@@H]([C@@H](C)O)C(=O)N[C@H](C(=O)N2CCCCC2)CC(=O)N[C@@H](C)C(=O)N[C@@H](C(C)C)C(=O)N(C)[C@@H](CC(C)C)C(=O)N(C)[C@@H](CC(C)C)C(=O)N(C)[C@@H](Cc2ccccc2)C(=O)N[C@@H](Cc2ccccc2)C(=O)N1C` [DP-15] (AV[NMeL][NMeL][NMeF]F[NMeI]P[Sar]TD-Piperidide; lactam N-11), `CC[C@H](C)[C@@H]1NC(=O)[C@H](C)NC(=O)C[C@@H](C(=O)N2CCCCC2)NC(=O)[C@H](C(C)C)NC(=O)[C@H](Cc2ccccc2)N(C)C(=O)[C@H](CC(C)C)NC(=O)[C@H]([C@@H](C)O)NC(=O)[C@H](Cc2ccccc2)NC(=O)[C@H](C)NC(=O)CN(C)C(=O)[C@H](CC(C)C)NC1=O` [DP-28] (AIL[Sar]AFTL[NMeF]VD-Piperidide; lactam N-11) is 3.3-fold higher in microsomal CLint at 1 uM: 34 µL/min/mg for the first, 113 µL/min/mg for the second.

Work on `CC[C@H](C)[C@@H]1NC(=O)[C@H](Cc2ccccc2)NC(=O)[C@H](C)NC(=O)C[C@@H](C(=O)N2CCCCC2)NC(=O)[C@H](CC(C)C)NC(=O)[C@H](CC(C)C)NC(=O)[C@H](C(C)C)NC(=O)[C@H](C)N(C)C(=O)[C@H](Cc2ccccc2)NC(=O)CNC(=O)[C@H]([C@@H](C)O)NC(=O)[C@H](CC(C)C)NC(=O)[C@@H]2CCCN2C1=O` [DP-19] (AFIPLTGF[NMeA]VLLD-Piperidide; lactam N-13) yielded a microsomal CLint at 1 uM of 80 µL/min/mg.

same assay, conditions: microsomes, pH 7.4; human hepatic microsome, NADPH(+); read-out: CL NADPH(+)

Compared with `CC[C@H](C)[C@H]1C(=O)N[C@H](C(=O)N2CCCCC2)CC(=O)N[C@@H](C)C(=O)N[C@@H]([C@@H](C)O)C(=O)N(C)[C@@H](Cc2ccccc2)C(=O)N[C@@H](CC(C)C)C(=O)N2CCC[C@H]2C(=O)N[C@@H](C(C)C)C(=O)N[C@@H](Cc2ccccc2)C(=O)N(C)CC(=O)N[C@@H](CC(C)C)C(=O)N[C@@H](C)C(=O)N1C` [DP-24] (AT[NMeF]LPVF[Sar]LA[NMeI]D-Piperidide; lactam N-12), `CC[C@H](C)[C@H]1C(=O)N[C@H](C(=O)N2CCCCC2)CC(=O)N[C@@H](C)C(=O)N[C@@H]([C@@H](C)O)C(=O)N(C)[C@@H](Cc2ccccc2)C(=O)N[C@@H](CC(C)C)C(=O)N2CCC[C@H]2C(=O)N(C)[C@@H](C(C)C)C(=O)N[C@@H](Cc2ccccc2)C(=O)N(C)CC(=O)N(C)[C@@H](CC(C)C)C(=O)N[C@@H](C)C(=O)N1C` [DP-27] (AT[NMeF]LP[NMeV]F[Sar][NMeL]A[NMeI]D-Piperidide; lactam N-12) is 1.7-fold lower in microsomal CLint at 1 uM: 52 µL/min/mg for the first, 31 µL/min/mg for the second.

From patent US9409952B2, “Peptide-compound cyclization method” (Chugai Seiyaku Kabushiki Kaisha, priority 2011, dated 2016)
